Bridge positions count the residues as written; N and C are the ends. Peptide text beside a SMILES is read from it.
Experiments:
[1] = Toxicity against human type A red blood cells assessed as hemolytic activity after 1hr; assay type: cell-based, Erythrocyte; details: read-out: HD50
[2] = Toxicity against human type A red blood cells assessed as hemolytic activity at 80 uM after 1 ht; assay type: cell-based, Erythrocyte; details: read-out: Activity

Row | Structure (SMILES) | HC50 at 1 h [1] | hemolysis at 1 h, 80 µM [2]
1 | CC(C)C[C@@H]1NC(=O)CNC(=O)[C@H](CC(N)=O)NC(=O)[C@H](CCCNC(=N)N)NC(=O)[C@H]([C@@H](C)O)NC(=O)[C@@H]2CSSC[C@@H]3NC(=O)[C@H]([C@@H](C)O)NC(=O)CNC(=O)CNC(=O)[C@H](C(C)C)NC(=O)[C@@H]4CSSC[C@H](NC(=O)[C@H]([C@@H](C)O)NC(=O)[C@H](CSSC[C@H](NC(=O)[C@H](C(C)C)NC(=O)[C@@H]5CCCN5C1=O)C(=O)NCC(=O)N[C@@H](CCC(=O)O)C(=O)N[C@@H]([C@@H](C)O)C(=O)N4)NC(=O)CNC(=O)[C@@H]1CCCN1C(=O)[C@H]([C@@H](C)O)NC(=O)[C@H](CC(N)=O)NC3=O)C(=O)N[C@@H](CO)C(=O)N[C@@H](Cc1c[nH]c3ccccc13)C(=O)N1CCC[C@H]1C(=O)N[C@@H](C(C)C)C(=O)N2 [KALATA B1] | 12.7 µM | –
2 | CC[C@H](C)[C@@H]1NC(=O)[C@H]([C@@H](C)O)NC(=O)CNC(=O)CNC(=O)[C@H](CC(N)=O)NC(=O)[C@H]([C@@H](C)O)NC(=O)CNC(=O)[C@H](Cc2ccc(O)cc2)NC(=O)[C@@H]2CSSC[C@@H]3NC(=O)[C@H]([C@@H](C)O)NC(=O)CNC(=O)[C@H](CC(C)C)NC(=O)[C@H](Cc4ccccc4)NC(=O)[C@@H]4CSSC[C@H](NC(=O)[C@H](CO)NC(=O)[C@H](CSSC[C@H](NC(=O)[C@H](CC(=O)O)NC(=O)[C@H](Cc5ccccc5)NC1=O)C(=O)NCC(=O)N[C@@H](CCC(=O)O)C(=O)N[C@@H](CO)C(=O)N4)NC(=O)CNC(=O)[C@H](CCCCN)NC(=O)[C@H]([C@@H](C)O)NC(=O)[C@H](Cc1ccc(O)cc1)NC3=O)C(=O)NCC(=O)N[C@@H](CCC(=O)O)C(=O)N[C@@H](Cc1c[nH]c3ccccc13)C(=O)N[C@@H](CCCCN)C(=O)N[C@@H](CC(C)C)C(=O)N2 [TRICYCLON A] (cyclo(CFLGTCYTKGCSCGEWKLCYGTNGGTIFDCGES); disulfide 1-13, 6-19, 11-30) | – | 2%
3 | CC[C@H](C)[C@@H]1NC(=O)CNC(=O)[C@H](CC(N)=O)NC(=O)[C@H](Cc2ccc(O)cc2)NC(=O)[C@@H]2CSSC[C@@H]3NC(=O)[C@@H]4CCCN4C(=O)[C@H]([C@@H](C)CC)NC(=O)[C@H](Cc4c[nH]c5ccccc45)NC(=O)[C@H](C(C)C)NC(=O)[C@@H]4CSSC[C@H](NC(=O)[C@H](CO)NC(=O)[C@H](CSSC[C@H](NC(=O)[C@@H]5CCCN5C1=O)C(=O)N[C@@H](C)C(=O)N[C@@H](CCC(=O)O)C(=O)N[C@@H](CO)C(=O)N4)NC(=O)CNC(=O)[C@H](CC(C)C)NC(=O)[C@H](CC(C)C)NC(=O)[C@H](C)NC(=O)[C@H]([C@@H](C)O)NC(=O)[C@H](C(C)C)NC(=O)[C@H]([C@@H](C)O)NC3=O)C(=O)N[C@@H](CO)C(=O)N[C@@H](CC(N)=O)C(=O)N[C@@H](CC(N)=O)C(=O)N[C@@H](C(C)C)C(=O)N2 [cycloviolacin H4] (cyclo(AESCVWIPCTVTALLGCSCSNNVCYNGIPC); disulfide 4-19, 9-24, 17-30) | 5.5 µM | –
